Source: ChEMBL document CHEMBL5291721, “A preclinical secondary pharmacology resource illuminates target-adverse drug reaction associations of marketed drugs” (Nat Commun, 2023)

Legend:
[1] = target: T1, Alpha-2A adrenergic receptor (Homo sapiens, UniProt P08913); assay type: functional, cell-based
T1 sequence (P08913 whole entry): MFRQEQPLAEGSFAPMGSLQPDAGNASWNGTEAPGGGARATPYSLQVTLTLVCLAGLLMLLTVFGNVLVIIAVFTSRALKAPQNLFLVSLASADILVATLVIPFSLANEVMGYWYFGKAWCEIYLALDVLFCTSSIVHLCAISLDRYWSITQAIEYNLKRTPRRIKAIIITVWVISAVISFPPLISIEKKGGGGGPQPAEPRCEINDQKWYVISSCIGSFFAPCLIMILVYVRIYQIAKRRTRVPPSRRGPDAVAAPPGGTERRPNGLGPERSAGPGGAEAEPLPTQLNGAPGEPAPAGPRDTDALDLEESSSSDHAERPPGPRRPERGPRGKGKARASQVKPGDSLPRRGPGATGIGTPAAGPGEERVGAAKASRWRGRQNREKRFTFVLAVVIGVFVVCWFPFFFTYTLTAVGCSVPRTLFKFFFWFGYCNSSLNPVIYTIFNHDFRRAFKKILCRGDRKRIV

Vasopressin V1a receptor = Vasopressin V1a receptor (Homo sapiens, UniProt P37288)
[2] = target: Voltage-dependent L-type calcium channel subunit alpha-1C (Rattus norvegicus, UniProt P22002); assay type: functional
Histamine H2 receptor = Histamine H2 receptor (Homo sapiens, UniProt P25021); assay type: functional, cell-based
[3] = target: T2, 5-hydroxytryptamine receptor 1A (Homo sapiens, UniProt P08908); assay type: functional, cell-based
T2 sequence (P08908 whole entry): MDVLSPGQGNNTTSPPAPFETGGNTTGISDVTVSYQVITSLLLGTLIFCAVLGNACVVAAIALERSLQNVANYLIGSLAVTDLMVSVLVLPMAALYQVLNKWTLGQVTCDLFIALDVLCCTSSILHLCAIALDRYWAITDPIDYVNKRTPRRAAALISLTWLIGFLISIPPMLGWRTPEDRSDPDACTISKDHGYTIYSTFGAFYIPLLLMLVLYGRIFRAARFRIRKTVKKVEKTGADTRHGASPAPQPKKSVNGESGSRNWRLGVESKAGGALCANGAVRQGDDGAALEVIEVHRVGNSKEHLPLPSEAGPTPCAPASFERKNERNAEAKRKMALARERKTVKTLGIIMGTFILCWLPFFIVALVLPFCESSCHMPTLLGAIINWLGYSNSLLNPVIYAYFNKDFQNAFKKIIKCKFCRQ

Motilin receptor = Motilin receptor (Homo sapiens, UniProt O43193)
[4] = target: Delta-type opioid receptor (Homo sapiens, UniProt P41143)
[5] = target: T3, Equilibrative nucleoside transporter 1 (Homo sapiens, UniProt Q99808)
T3 sequence (Q99808 whole entry): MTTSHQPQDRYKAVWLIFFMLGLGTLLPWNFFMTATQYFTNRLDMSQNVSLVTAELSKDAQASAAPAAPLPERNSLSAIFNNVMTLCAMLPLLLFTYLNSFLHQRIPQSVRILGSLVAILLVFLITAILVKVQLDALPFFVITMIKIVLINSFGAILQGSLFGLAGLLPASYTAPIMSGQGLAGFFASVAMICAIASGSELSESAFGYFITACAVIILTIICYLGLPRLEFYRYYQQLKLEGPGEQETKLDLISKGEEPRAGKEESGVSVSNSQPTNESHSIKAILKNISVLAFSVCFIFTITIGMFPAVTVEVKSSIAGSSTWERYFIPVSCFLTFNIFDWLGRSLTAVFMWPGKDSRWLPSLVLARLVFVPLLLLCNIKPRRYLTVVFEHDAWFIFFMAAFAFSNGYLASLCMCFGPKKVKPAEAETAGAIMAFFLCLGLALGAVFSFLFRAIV

Progesterone receptor [6] = target: T4, Progesterone receptor (Homo sapiens, UniProt P06401); assay type: functional
T4 sequence (P06401 whole entry): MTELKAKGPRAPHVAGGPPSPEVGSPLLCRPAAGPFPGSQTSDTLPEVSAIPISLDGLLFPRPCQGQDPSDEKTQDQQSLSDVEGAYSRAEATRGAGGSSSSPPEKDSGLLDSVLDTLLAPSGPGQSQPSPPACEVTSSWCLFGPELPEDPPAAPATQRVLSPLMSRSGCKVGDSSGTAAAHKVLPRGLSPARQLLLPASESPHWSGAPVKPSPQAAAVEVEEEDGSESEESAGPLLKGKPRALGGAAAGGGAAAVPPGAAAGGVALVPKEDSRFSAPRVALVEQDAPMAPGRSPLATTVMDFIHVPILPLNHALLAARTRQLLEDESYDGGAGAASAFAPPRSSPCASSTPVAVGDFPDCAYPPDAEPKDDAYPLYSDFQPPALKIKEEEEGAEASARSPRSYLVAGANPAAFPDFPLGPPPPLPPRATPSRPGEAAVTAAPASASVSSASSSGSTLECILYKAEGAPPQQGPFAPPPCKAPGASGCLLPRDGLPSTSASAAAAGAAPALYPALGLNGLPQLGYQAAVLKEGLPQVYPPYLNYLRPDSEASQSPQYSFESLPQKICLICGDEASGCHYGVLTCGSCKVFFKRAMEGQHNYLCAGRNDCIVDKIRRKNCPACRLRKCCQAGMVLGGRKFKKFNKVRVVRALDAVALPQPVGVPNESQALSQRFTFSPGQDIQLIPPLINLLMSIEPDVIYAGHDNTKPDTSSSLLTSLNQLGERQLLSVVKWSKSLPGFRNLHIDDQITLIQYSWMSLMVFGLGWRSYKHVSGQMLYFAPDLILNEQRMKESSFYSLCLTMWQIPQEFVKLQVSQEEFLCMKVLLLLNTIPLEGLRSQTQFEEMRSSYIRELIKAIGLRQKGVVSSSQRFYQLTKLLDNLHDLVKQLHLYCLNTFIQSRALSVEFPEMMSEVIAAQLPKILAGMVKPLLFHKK

Progesterone receptor [7] = target: T4, Progesterone receptor; assay type: functional; remark: listed apart in the source
Further: assay procedure not described here.

Motilin receptor, sequence (O43193 whole entry): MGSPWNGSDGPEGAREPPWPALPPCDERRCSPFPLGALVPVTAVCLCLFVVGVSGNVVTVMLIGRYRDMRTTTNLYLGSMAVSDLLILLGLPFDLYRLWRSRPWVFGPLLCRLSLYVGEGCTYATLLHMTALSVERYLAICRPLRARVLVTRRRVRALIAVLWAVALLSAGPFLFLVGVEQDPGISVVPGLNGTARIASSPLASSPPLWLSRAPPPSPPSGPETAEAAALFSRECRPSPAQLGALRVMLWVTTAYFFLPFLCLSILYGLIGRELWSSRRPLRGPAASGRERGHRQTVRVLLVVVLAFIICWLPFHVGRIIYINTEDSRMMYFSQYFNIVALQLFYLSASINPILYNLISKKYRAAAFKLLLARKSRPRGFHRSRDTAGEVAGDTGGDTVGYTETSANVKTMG
Vasopressin V1a receptor, sequence (P37288 whole entry): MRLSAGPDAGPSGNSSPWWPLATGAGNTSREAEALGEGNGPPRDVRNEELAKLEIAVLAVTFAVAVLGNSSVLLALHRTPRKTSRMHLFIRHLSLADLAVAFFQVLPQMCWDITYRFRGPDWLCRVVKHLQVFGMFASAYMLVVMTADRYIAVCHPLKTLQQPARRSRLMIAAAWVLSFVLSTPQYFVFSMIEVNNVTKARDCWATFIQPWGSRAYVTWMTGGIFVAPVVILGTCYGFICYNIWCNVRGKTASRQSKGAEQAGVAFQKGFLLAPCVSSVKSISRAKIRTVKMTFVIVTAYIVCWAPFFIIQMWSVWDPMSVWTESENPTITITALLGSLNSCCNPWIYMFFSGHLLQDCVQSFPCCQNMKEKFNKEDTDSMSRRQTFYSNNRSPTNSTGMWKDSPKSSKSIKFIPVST
Delta-type opioid receptor, sequence (P41143 whole entry): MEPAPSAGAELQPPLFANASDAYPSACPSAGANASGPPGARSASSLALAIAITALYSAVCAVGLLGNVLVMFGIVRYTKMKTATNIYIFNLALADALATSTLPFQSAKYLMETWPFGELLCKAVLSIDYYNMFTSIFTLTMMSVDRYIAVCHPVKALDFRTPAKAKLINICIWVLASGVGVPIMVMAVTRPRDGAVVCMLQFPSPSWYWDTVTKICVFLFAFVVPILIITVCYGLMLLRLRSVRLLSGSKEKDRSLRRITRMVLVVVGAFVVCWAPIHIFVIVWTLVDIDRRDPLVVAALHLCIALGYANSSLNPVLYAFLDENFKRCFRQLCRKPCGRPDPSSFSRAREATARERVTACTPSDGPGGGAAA
Voltage-dependent L-type calcium channel subunit alpha-1C, sequence (P22002 whole entry): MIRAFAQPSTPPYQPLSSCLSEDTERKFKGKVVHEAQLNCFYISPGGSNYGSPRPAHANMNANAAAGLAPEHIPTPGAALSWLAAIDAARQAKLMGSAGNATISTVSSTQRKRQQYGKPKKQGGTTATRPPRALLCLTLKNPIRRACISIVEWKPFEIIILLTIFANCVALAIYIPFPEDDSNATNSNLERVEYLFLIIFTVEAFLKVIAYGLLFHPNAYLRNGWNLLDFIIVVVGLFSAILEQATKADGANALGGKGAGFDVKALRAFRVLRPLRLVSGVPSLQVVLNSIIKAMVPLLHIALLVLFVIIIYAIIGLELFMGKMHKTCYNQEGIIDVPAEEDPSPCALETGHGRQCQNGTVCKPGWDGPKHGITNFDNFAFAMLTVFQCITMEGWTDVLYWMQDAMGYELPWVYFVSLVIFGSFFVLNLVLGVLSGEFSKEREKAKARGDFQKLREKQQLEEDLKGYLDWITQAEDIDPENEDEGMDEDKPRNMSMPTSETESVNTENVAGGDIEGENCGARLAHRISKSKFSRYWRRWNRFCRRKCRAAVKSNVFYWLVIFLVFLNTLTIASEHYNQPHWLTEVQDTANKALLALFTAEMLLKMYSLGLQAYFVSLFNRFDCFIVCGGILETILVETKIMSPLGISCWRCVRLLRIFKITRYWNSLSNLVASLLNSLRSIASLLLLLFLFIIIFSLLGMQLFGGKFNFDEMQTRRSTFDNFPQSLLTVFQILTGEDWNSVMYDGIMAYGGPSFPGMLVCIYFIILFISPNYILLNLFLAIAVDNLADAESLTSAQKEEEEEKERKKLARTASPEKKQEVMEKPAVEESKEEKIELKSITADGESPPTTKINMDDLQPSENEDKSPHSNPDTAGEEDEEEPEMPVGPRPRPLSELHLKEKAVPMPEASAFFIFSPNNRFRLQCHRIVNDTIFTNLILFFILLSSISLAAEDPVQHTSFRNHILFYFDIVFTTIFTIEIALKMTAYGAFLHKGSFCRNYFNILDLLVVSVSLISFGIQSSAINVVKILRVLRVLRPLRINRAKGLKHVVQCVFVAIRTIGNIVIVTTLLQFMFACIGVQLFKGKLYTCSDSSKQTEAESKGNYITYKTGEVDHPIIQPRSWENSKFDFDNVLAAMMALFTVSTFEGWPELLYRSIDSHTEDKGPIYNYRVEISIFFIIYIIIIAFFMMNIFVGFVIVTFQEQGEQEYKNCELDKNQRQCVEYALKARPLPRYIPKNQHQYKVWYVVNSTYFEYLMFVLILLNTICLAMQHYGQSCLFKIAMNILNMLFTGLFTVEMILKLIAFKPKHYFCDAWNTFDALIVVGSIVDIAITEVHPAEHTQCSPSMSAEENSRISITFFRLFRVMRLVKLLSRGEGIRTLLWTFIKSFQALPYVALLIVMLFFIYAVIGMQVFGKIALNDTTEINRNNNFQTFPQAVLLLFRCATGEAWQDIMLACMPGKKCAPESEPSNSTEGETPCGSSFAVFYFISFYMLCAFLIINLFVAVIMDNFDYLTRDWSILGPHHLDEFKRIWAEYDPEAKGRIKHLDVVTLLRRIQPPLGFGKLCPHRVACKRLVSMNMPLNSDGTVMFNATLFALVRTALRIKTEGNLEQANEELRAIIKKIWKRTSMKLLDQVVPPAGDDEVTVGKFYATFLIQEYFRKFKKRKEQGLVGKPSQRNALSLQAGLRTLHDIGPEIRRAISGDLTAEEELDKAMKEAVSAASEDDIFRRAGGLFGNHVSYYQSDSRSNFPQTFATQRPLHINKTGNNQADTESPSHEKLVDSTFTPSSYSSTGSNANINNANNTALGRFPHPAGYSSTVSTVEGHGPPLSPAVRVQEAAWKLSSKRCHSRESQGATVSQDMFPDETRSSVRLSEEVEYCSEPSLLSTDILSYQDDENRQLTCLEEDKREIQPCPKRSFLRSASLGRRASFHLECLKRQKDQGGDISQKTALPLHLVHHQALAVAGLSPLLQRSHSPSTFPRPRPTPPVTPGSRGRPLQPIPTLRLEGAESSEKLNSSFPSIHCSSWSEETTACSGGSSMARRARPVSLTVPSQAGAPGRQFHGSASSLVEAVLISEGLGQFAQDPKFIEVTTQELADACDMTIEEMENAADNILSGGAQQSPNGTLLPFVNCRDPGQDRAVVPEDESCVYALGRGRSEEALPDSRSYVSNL
Histamine H2 receptor, sequence (P25021 whole entry): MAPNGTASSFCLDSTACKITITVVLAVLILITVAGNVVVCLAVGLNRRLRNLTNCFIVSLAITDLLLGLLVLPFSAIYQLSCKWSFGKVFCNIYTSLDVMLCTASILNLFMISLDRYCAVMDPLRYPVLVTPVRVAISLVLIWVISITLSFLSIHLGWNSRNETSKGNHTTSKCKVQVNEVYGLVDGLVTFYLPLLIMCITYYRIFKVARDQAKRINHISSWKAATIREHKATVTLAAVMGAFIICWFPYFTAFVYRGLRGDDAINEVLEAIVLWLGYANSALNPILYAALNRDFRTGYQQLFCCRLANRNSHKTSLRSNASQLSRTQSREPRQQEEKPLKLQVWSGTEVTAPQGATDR

SMILES | AC50 [1] | AC50 (Vasopressin V1a receptor) | AC50 [2] | AC50 (Histamine H2 receptor) | AC50 [3] | AC50 (Motilin receptor) | AC50 [4] | AC50 [5] | AC50 (Progesterone receptor [6]) | AC50 (Progesterone receptor [7])
Nc1ccc(S(=O)(=O)Nc2nccs2)cc1 [SULFATHIAZOLE] | > 10 µM | > 10 µM | > 10 µM | > 10 µM | > 10 µM | > 10 µM | > 30 µM | > 30 µM |  | 
CCN(CC)CCNC(=O)c1c(C)[nH]c(/C=C2\C(=O)Nc3ccc(F)cc32)c1C [SUNITINIB] | > 30 µM | > 10 µM | > 30 µM | > 30 µM |  | 7.3 µM | 1.7 µM | 5 µM | 1.7 µM | 
O=C1CCc2cc(OCCCCc3nnnn3C3CCCCC3)ccc2N1 [CILOSTAZOL] | > 30 µM |  | > 30 µM | > 30 µM |  | > 30 µM | > 30 µM | 30 µM | > 30 µM | > 30 µM
COc1ccccc1OCCNCC(O)COc1cccc2[nH]c3ccccc3c12 (centres undefined) [CARVEDILOL] | > 30 µM | > 30 µM | > 10 µM | > 10 µM |  | 7.61 µM | > 10 µM | 31.7 µM | > 30 µM | > 30 µM
CN1C[C@H](C(=O)N[C@]2(C)O[C@@]3(O)[C@@H]4CCCN4C(=O)[C@H](Cc4ccccc4)N3C2=O)C=C2c3cccc4[nH]cc(c34)C[C@H]21 [ERGOTAMINE] | > 10 µM | > 30 µM |  |  |  | > 30 µM | > 30 µM | > 30 µM | > 30 µM | > 30 µM
C[C@H](CCC(=O)O)[C@H]1CC[C@H]2[C@@H]3[C@@H](O)C[C@@H]4C[C@H](O)CC[C@]4(C)[C@H]3CC[C@]12C [URSODIOL] | > 30 µM | > 30 µM |  |  | > 30 µM | > 30 µM | > 30 µM | > 30 µM |  | 
C[C@@H](NCCCc1cccc(C(F)(F)F)c1)c1cccc2ccccc12 | > 30 µM | > 30 µM |  | > 30 µM |  | 22 µM | > 30 µM | > 30 µM | > 30 µM | > 30 µM
CCCN(CCC)C(=O)Cc1c(-c2ccc(Cl)cc2)nc2ccc(Cl)cn12 [ALPIDEM] | > 30 µM | > 30 µM | > 30 µM | > 30 µM |  | > 30 µM | > 30 µM | > 30 µM | > 30 µM | > 30 µM
CCCC(CCC)C(=O)O [VALPROIC ACID] | > 10 µM | > 30 µM | > 10 µM |  | > 10 µM | > 10 µM | > 30 µM | > 30 µM |  | 
CC(C)(C)NCC(O)c1cc(O)cc(O)c1 (centres undefined) [TERBUTALINE] |  | > 30 µM |  |  |  | > 30 µM |  | > 30 µM | > 30 µM | > 30 µM
C=C[C@H]1C[N@@]2CC[C@H]1C[C@@H]2[C@@H](O)c1ccnc2ccc(OC)cc12 [QUINIDINE] | > 10 µM | > 30 µM |  | > 10 µM |  | > 10 µM | > 30 µM | > 30 µM |  | 
CN(C)CCc1c[nH]c2ccc(Cn3cncn3)cc12 [RIZATRIPTAN] | > 30 µM | > 10 µM | > 10 µM | > 30 µM |  | > 10 µM | > 30 µM | > 30 µM |  | 
COc1ccc(CC2c3cc(OC)c(OC)cc3CC[N+]2(C)CCC(=O)OCCCCCOC(=O)CC[N+]2(C)CCc3cc(OC)c(OC)cc3C2Cc2ccc(OC)c(OC)c2)cc1OC (centres undefined) | > 30 µM | > 30 µM | > 30 µM | > 30 µM |  | > 30 µM | > 30 µM | > 30 µM | > 30 µM | > 30 µM
COc1cc2nc(N3CCN(C(=O)C4CCCO4)CC3)nc(N)c2cc1OC (centres undefined) [TERAZOSIN] | > 30 µM | > 10 µM |  | > 10 µM | > 10 µM | > 10 µM | > 30 µM | > 30 µM |  | 
